Assay results: publication PMC5986058 (FEBS Open Bio, 2018)

How the values were obtained:
[1] = molecular target: T1, LTAaj (L-threonine aldolase from Aeromonas jandaei; L-allo-threonine aldolase) (Aeromonas jandaei, UniProt O07051); assay: UV-vis spectroscopy of external aldimine ([…] nm) and quinonoid ([…] nm); format: binding; settings: 50 mM sodium phosphate pH 8.0, 22 °C, 0.1 M glycine; PLP enzyme; covalent
T1 construct: gene ltaA; C-terminal His-tag, expressed in E. coli BL21(DE3), Ni-NTA purified, homotetramer, PLP-dependent
T1 sequence (O07051 1-338): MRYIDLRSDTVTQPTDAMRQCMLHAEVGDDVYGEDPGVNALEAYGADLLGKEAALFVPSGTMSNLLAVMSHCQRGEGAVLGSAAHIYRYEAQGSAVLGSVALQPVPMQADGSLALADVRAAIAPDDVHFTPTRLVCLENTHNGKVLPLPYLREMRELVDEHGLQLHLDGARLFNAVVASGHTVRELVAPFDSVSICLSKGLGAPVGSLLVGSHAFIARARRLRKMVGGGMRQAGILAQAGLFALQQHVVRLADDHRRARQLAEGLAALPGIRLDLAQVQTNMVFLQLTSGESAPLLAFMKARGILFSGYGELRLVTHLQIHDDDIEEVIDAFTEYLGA

[2] = molecular target: T1, LTAaj (L-threonine aldolase from Aeromonas jandaei; L-allo-threonine aldolase); assay: UV-vis spectroscopy of internal aldimine ([…]-420 nm); format: binding; settings: 50 mM sodium phosphate pH 8.0, 22 °C; covalent Schiff base with K199

Compound	UV-vis spectroscopy of external aldimine (420 nm) and quinonoid (495 nm) [1]	UV-vis spectroscopy of internal aldimine (410-420 nm) [2]
NCC(=O)O [glycine]	external aldimine with the glycine substrate in the wild type LTAaj and its mutants	
Cc1ncc(COP(=O)(O)O)c(C=O)c1O [PLP]		Formation of the (A) internal aldimine
